Laboratory results as given in PMC8151276, “An Integrated Approach toward NanoBRET Tracers for Analysis of GPCR Ligand Engagement” (Molecules, 2021).

Target: T1, FZD9 (Homo sapiens, UniProt O00144)
T1 construct: purchased Promega (in-house HiBiT-GPCR construct library, NanoBRET)
T1 sequence (O00144 23-591): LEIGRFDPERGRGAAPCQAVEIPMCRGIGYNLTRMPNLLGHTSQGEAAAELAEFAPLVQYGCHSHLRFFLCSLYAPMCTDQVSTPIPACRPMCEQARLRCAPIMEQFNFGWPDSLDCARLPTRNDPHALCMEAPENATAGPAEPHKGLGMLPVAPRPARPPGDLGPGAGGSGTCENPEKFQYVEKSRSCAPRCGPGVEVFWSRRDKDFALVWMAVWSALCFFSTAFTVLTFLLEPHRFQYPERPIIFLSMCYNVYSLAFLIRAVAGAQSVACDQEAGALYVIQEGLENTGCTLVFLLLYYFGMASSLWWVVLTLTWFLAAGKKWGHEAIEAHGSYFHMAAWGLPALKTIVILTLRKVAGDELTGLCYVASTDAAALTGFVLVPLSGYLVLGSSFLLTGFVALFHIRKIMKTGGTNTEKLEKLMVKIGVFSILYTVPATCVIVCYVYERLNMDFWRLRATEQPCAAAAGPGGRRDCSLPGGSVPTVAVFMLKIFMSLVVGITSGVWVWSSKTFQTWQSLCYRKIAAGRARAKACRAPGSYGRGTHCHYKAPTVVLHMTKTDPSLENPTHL
Experiment: NanoBRET screen HiBiT-FZD9 in HEK293
Format: binding
Method: Each tracer candidate was screened across the entire library of HiBiT-GPCR constructs using NanoBRET as the detection modality. As depicted in Figure 4A, the specificity of interactions was evaluated through decrease in BRET due to competitive displacement of a bound tracer by excess parental compound. Each tracer was analyzed for binding to each HiBiT-GPCR fusion in the absence and in the presence of competing parental compound. Briefly, HEK293 cells were transfected with HiBiT-GPCR constructs diluted into promoterless DNA to reduce expression and maximize translocation to the cell surface. Each tracer candidate was then screened at concentrations of 1 μM and 0.1 μM across cells expressing these fusions. Cells were treated for 1.5 h with tracer either alone or in the presence of 20 μM competing parental compound (i.e., control). BRET was measured upon addition of purified LgBiT and subsequent complementation with HiBiT genetically fused to a GPCR. The specificity of interactions was assessed through a decrease in BRET signal due to competitive displacement of the bound tracer. To further gauge the robustness of these interactions, the fold response over the control (i.e., BRETtracer/BRETcontrol) was calculated. We chose a 1.5-fold response, which translates to ≥7-fold signal over noise as the minimal threshold required to score an interaction as positive. […]. Below we highlight the screening results obtained for our exemplary fluorescent tracers based on Clozapine, Amitriptyline and AZD1283.
HiBiT-GPCR DNA constructs were diluted in 10 mM Tris pH 8 to a final concentration of 0.01 μg/μL, arrayed in 96-well plates and stored at −20 °C. For transfection, HEK293 cells were suspended in Opti-MEM (without phenol red) supplemented with 2% fetal bovine serum (Seradigm) and 100 units/mL penicillin–streptomycin (Gibco) at a final concentration of 220,000 cells/mL and dispensed into white 96-well plates at 90 μL/well. Subsequent transfections and screens were carried using an Agilent Bravo Automated Liquid Handling Platform. First, the 96-well HiBiT DNA arrays were diluted 25-fold in Opti-MEM (without serum or phenol red) to a final concentration of 0.0004 μg/μL and 20 μL of the diluted DNAs were transferred into new 96-well plates. Next, promoterless carrier DNA (1 μg/μL) was diluted 25-fold (0.04 μg/μL) and then dispensed into the diluted arrays at 20 μL/well. Following brief mixing, Viafect transfection reagent (Promega) diluted 16-fold into Opti-MEM was dispensed into the plates at 40 μL/well. After mixing by pipetting, plates were incubated for 10 min on the pipetting station deck. The DNA-transfection reagent complexes were then added to plates containing cells. To facilitate the screen, 10 μL of DNA-transfection reagent complexes were added in duplicates to the top 4 and bottom 4 rows, resulting in two identical 48-well arrays per plate. Plates with transfected cells were incubated for 18–20 h at 37 °C/5% CO2. A screen of each tracer across the entire library using two different concentrations requires duplicate plates of transfected cells. Depending on the number of tracers being screened, transfections can be scaled up using the same ratios. The next day, for each tracer, four 20× screening solutions in tracer dilution buffer (Promega) were prepared: two duplicates at final concentration of 20 μM and two duplicates at a final concentration of 2 μM. A competing unmodified compound was added to one of each duplicate at a final concentration of 400 μM. The four resulting solutions were diluted 4-fold in Opti-MEM without serum or phenol red to generate 5× solutions (5 µM and 0.5 µM tracer +/− 100 μM competing compound). To screen the library, a BioTek MultiFlo FX liquid dispenser was used to dispense 22.5 µL of tracer solution to the top 4 rows and 22.5 µL tracer + competing compound solution to the 4 bottom rows. Plates were briefly mixed on an orbital shaker and incubated for 1.5 h at room temperature. […]

O=C(CCOCCOCCOCCOCCNC(=O)CCc1ccc2n1[B-](F)(F)[N+]1=C(c3ccc[nH]3)C=CC1=C2)NCCCN1CCN(C2=Nc3ccccc3Oc3ccc(Cl)cc32)CC1 [Loxapine-a-2-NB590]
NanoBRET Fold Response (FZD9, tracer 0.1μM): 1.00
NanoBRET Fold Response (FZD9, tracer 1μM): 1.07

CCCn1c(=O)c2[nH]c(-c3ccc(OCC(=O)NCCNC(=O)CCOCCNC(=O)c4ccc(CNC(=O)CCc5ccc6n5[B-](F)(F)[N+]5=C(c7ccc[nH]7)C=CC5=C6)cc4)cc3)nc2n(CCC)c1=O [XAC-3-NB590]
NanoBRET Fold Response (FZD9, tracer 0.1μM): 1.00
NanoBRET Fold Response (FZD9, tracer 1μM): 1.07

CN(C)CCC=C1c2ccccc2CCc2ccc(C(=O)NCCNC(=O)CCOCCOCCOCCOCCNC(=O)CCc3ccc4n3[B-](F)(F)[N+]3=C(c5ccc[nH]5)C=CC3=C4)cc21 [Amitriptyline-a-2-NB590]
NanoBRET Fold Response (tracer at 0.1μM): 0.96
NanoBRET Fold Response (tracer at 1μM): 1.07

COc1ccccc1N1CCN(CCCCN2C(=O)c3ccc(CNC(=O)CCOCCOCCOCCOCCNC(=O)CCc4ccc5n4[B-](F)(F)[N+]4=C(c6ccc[nH]6)C=CC4=C5)cc3C2=O)CC1 [NAN-190-2-NB590]
NanoBRET Fold Response (FZD9, tracer 0.1μM): 0.96
NanoBRET Fold Response (FZD9, tracer 1μM): 1.06

O=C(CCc1ccc2n1[B-](F)(F)[N+]1=C(c3ccc[nH]3)C=CC1=C2)NCc1ccc(C(=O)NCCOCCOCCNCC(O)COc2cccc3ccccc23)cc1 (stereo not shown) [Propranolol-3-NB590]
NanoBRET Fold Response (FZD9, 0.1μM): 0.98
NanoBRET Fold Response (FZD9, 1μM): 1.09

COc1ccccc1N1CCN(CCCCN2C(=O)c3ccc(CNC(=O)CCOCCNC(=O)c4ccc(CNC(=O)CCc5ccc6n5[B-](F)(F)[N+]5=C(c7ccc[nH]7)C=CC5=C6)cc4)cc3C2=O)CC1 [NAN-190-3-NB590]
NanoBRET Fold Response (FZD9, tracer 0.1μM): 0.94
NanoBRET Fold Response (FZD9, tracer 1μM): 1.18

O=C(CCc1ccc2n1[B-](F)(F)[N+]1=C(c3ccc[nH]3)C=CC1=C2)NCc1ccc(C(=O)NCCOCCC(=O)N[C@@H]2CC[C@@]3(O)[C@H]4Cc5ccc(O)c6c5[C@@]3(CCN4CC3CC3)[C@H]2O6)cc1 [Naltrexone-3-NB590]
NanoBRET Fold Response (FZD9, tracer 0.1μM): 1.17
NanoBRET Fold Response (FZD9, tracer 1μM): 0.96

CCOC(=O)c1cc(C#N)c(N2CCC(C(=O)NS(=O)(=O)Cc3ccccc3/C=C/C(=O)NCCNC(=O)CCc3ccc4n3[B-](F)(F)[N+]3=C(c5ccc[nH]5)C=CC3=C4)CC2)nc1C [AZD1283-1-NB590]
NanoBRET Fold Response (FZD9, 0.1μM): 1.05
NanoBRET Fold Response (FZD9, 1μM): 1.02

COc1ccc2[nH]c(-c3ccc(CNC(=O)CCOCCOCCOCCOCCNC(=O)CCc4ccc5n4[B-](F)(F)[N+]4=C(c6ccc[nH]6)C=CC4=C5)cc3)c(CCNC(C)=O)c2n1 [AzomelatoninICO9-2-NB590]
NanoBRET Fold Response (0.1μM tracer): 1.30
NanoBRET Fold Response (1μM tracer): 0.94

CC(C)N(CC[C@H](c1ccccc1)c1cc(CCNC(=O)CCOCCOCCOCCOCCNC(=O)CCc2ccc3n2[B-](F)(F)[N+]2=C(c4ccc[nH]4)C=CC2=C3)ccc1O)C(C)C [Tolterodine-2-NB590]
NanoBRET Fold Response (FZD9, tracer 0.1μM): 0.96
NanoBRET Fold Response (FZD9, tracer 1μM): 0.85

CN1CCN(C2=Nc3cc(Cl)ccc3N(CC(=O)NCCOCCOCCOCCOCCNC(=O)CCc3ccc4n3[B-](F)(F)[N+]3=C(c5ccc[nH]5)C=CC3=C4)c3ccccc32)CC1 [Clozapine-c-2-NB590]
NanoBRET Fold Response (FZD9, 0.1μM tracer): 0.95
NanoBRET Fold Response (FZD9, 1μM tracer): 0.95

N#CN=C(NCCCOc1cccc(CN2CCCCC2)c1)NCCNC(=O)CCOCCOCCOCCOCCNC(=O)CCc1ccc2n1[B-](F)(F)[N+]1=C(c3ccc[nH]3)C=CC1=C2 [Aminopotentidine-2-NB590]
NanoBRET Fold Response (FZD9, tracer 0.1μM): 1.08
NanoBRET Fold Response (FZD9, tracer 1μM): 1.01

COc1ccc2c(n1)c(CCNC(C)=O)cn2CCNC(=O)CCc1ccc2n1[B-](F)(F)[N+]1=C(c3ccc[nH]3)C=CC1=C2 [Azamelatonin-1-NB590]
NanoBRET Fold Response (0.1μM tracer): 1.17
NanoBRET Fold Response (1μM tracer): 1.15

CC(C)N(CC[C@H](c1ccccc1)c1cc(CCNC(=O)c2ccc(CNC(=O)CCc3ccc4n3[B-](F)(F)[N+]3=C(c5ccc[nH]5)C=CC3=C4)cc2)ccc1O)C(C)C [Tolterodine-BZ-NB590]
NanoBRET Fold Response (FZD9, tracer 0.1μM): 0.95
NanoBRET Fold Response (FZD9, tracer 1μM): 1.04

O=C(CCc1ccc2n1[B-](F)(F)[N+]1=C(c3ccc[nH]3)C=CC1=C2)NCCOCCOCCNC(=O)OCCOCCN1CCN(C2=Nc3ccccc3Sc3ccccc32)CC1 [Quetiapine-a-2-NB590]
NanoBRET Fold Response (FZD9, tracer 0.1μM): 0.84
NanoBRET Fold Response (FZD9, tracer 1μM): 0.78

Cc1cc2c(s1)Nc1ccccc1N=C2N1CCN(CCCNC(=O)CCOCCOCCOCCOCCNC(=O)CCc2ccc3n2[B-](F)(F)[N+]2=C(c4ccc[nH]4)C=CC2=C3)CC1 [Olanzapine-a-2-NB590]
NanoBRET Fold Response (FZD9, tracer 0.1μM): 0.95
NanoBRET Fold Response (FZD9, tracer 1μM): 0.95

CN(C)CCC=C1c2ccccc2CCc2ccc(C(=O)NCCNC(=O)CCOCCOCCOCCOCCNC(=O)CCc3ccc4n3[B-](F)(F)[N+]3=C(c5ccc[nH]5)C=CC3=C4)cc21 [Amitriptyline-b-2-NB590]
NanoBRET Fold Response (tracer at 0.1μM, listed as amitriptyline-b-2-NB590): 1.04
NanoBRET Fold Response (tracer at 1μM, listed as amitriptyline-b-2-NB590): 1.11

O=C(CCOCCOCCOCCOCCNC(=O)CCc1ccc2n1[B-](F)(F)[N+]1=C(c3ccc[nH]3)C=CC1=C2)NCCCN1CCN(C2=Nc3cc(Cl)ccc3Nc3ccccc32)CC1 [Clozapine-a-2-NB590]
NanoBRET Fold Response (FZD9, 0.1μM tracer): 1.00
NanoBRET Fold Response (FZD9, 1μM tracer): 1.39

CN1CCN(C2=Nc3cc(Cl)ccc3Nc3ccc(CNC(=O)CCOCCOCCOCCOCCNC(=O)CCc4ccc5n4[B-](F)(F)[N+]4=C(c6ccc[nH]6)C=CC4=C5)cc32)CC1 [Clozapine-b-2-NB590]
NanoBRET Fold Response (FZD9, 0.1μM tracer): 1.02
NanoBRET Fold Response (FZD9, 1μM tracer): 1.05

Cc1nc2n(c(=O)c1CCN1CCC(c3noc4cc(F)ccc34)CC1)CCCC2OC(=O)NCCOCCOCCOCCOCCNC(=O)CCc1ccc2n1[B-](F)(F)[N+]1=C(c3ccc[nH]3)C=CC1=C2 (stereo not shown) [Risperidone-2-NB590]
NanoBRET Fold Response (FZD9, tracer 0.1μM): 1.00
NanoBRET Fold Response (FZD9, tracer 1μM): 0.99
